ChEMBL document CHEMBL1201862, “PubChem BioAssay data set” (2004)
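96-well plates; 48 h exposure; 5 concentrations. Endpoints by linear interpolation between flanking doses. Not reached: highest tested concentration assigned. Here, GI50 denotes the concentration required for 50% inhibition of growth.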 Active and inactive are the calls of the source. No stated cut-off is given here; in the data, active = GI50 up to about 1.1 µM and inactive = higher.

Columns and labels:
Experiment in all cases: inhibition of tumour cell growth, NCI panel, 48 h
[1] = system: Hs-578T
[2] = system: SN12C
[3] = system: NCI/ADR-RES
[4] = system: NCI-H23
[5] = system: IGROV-1
[6] = system: HOP-92
[7] = system: RXF 393
[8] = system: ACHN
[9] = system: UACC-257
[10] = system: COLO 205
[11] = system: SNB-19
[12] = system: 786-0
[13] = system: A549
[14] = system: OVCAR-5
[15] = system: KM12
[16] = system: A498

Measured: GI50

O=S(=O)(O)c1cc(/N=N/c2c(O)ccc3ccccc23)ccc1/C=C/c1ccc(/N=N/c2c(O)ccc3ccccc23)cc1S(=O)(=O)O
inactive: [1] > 100 µM | [2] > 100 µM | [3] > 100 µM | [4] > 100 µM | [5] 70.3 µM | [6] > 100 µM | [7] > 100 µM | [8] > 100 µM | [9] > 100 µM | [10] > 100 µM | [11] > 100 µM | [12] > 100 µM | [13] > 100 µM | [14] > 100 µM | [15] > 100 µM

Nc1nc(Br)nc2ncn(C3CC(O)C(CO)O3)c12 (configuration not stated)
inactive: [1] > 100 µM | [2] 10 µM | [4] 3.76 µM | [5] > 100 µM | [6] 2.42 µM | [7] > 100 µM | [8] 10.7 µM | [9] > 100 µM | [10] 67.3 µM | [11] 42.2 µM | [12] 77.3 µM | [13] 18 µM | [16] > 100 µM | [14] > 100 µM | [15] > 100 µM

CC(=O)N1C(Nc2cccc3nc(C)ccc23)CCN1c1ccccc1 (configuration not stated)
inactive: [1] > 10 µM | [2] > 10 µM | [3] > 10 µM | [4] > 10 µM | [5] > 10 µM | [7] > 10 µM | [8] > 10 µM | [9] > 10 µM | [10] > 10 µM | [11] > 10 µM | [12] > 10 µM | [13] > 10 µM | [14] > 10 µM

CCCCc1ccc(-n2sc3ncc([N+](=O)[O-])cc3c2=O)cc1
inactive: [1] 4.93 µM | [2] 17.3 µM | [3] 11.5 µM | [4] 11.2 µM | [5] 13.8 µM | [8] 14.8 µM | [9] 16.6 µM | [10] 18.4 µM | [11] 13.7 µM | [12] 15 µM | [13] 12.9 µM | [14] 13.4 µM | [15] 12 µM

Oc1ccc(-c2nc(-c3ccc4ccccc4n3)c(-c3ccc(F)cc3)[nH]2)cc1
inactive: [1] 11 µM | [2] 15.3 µM | [3] 4.74 µM | [4] 12.5 µM | [5] 13 µM | [7] 15.2 µM | [8] 12.3 µM | [9] 13.5 µM | [10] 14.6 µM | [11] 17.3 µM | [12] 15.2 µM | [13] 11.6 µM | [14] 15.9 µM | [15] 5.26 µM

COc1ccc2c(C)c(Oc3c(Cl)c(Cl)c(O)c(C#N)c3C#N)oc2c1
inactive: [1] > 100 µM | [2] > 100 µM | [3] > 100 µM | [4] > 100 µM | [5] > 100 µM | [8] > 100 µM | [9] > 100 µM | [10] > 100 µM | [11] > 100 µM | [12] > 100 µM | [13] > 100 µM | [16] > 100 µM | [14] > 100 µM | [15] > 100 µM

CCN(CC)C(=O)N1CN(c2ccccc2)C2(CCN(CCCC3(c4ccc(F)cc4)OCCO3)CC2)C1=O
inactive: [1] 16.3 µM | [2] 16.9 µM | [3] 23.6 µM | [4] 16.1 µM | [7] 14.7 µM | [8] > 10 µM | [9] 12.4 µM | [10] 3.13 µM | [11] 30.3 µM | [12] 18.6 µM | [13] 29.3 µM | [14] > 10 µM | [15] 16.5 µM

CN(C(=O)c1ccc(Cl)cc1)C(=S)N1CCN(c2ccccc2)CC1
inactive: [1] 19 µM | [2] > 100 µM | [4] > 100 µM | [5] > 100 µM | [6] 89.5 µM | [7] > 100 µM | [8] > 100 µM | [9] 71.4 µM | [10] 50.9 µM | [11] > 100 µM | [12] > 100 µM | [13] 89.1 µM | [14] > 100 µM | [15] 53.2 µM

CN1C(=O)c2ccccc2OC12C=Cc1ccc(O)cc1O2 (configuration not stated)
inactive: [1] 19.3 µM | [2] 26.7 µM | [3] 13.5 µM | [4] 28.2 µM | [5] 28.2 µM | [6] 27.2 µM | [8] 23 µM | [9] 15.6 µM | [10] 22.2 µM | [11] 20.4 µM | [12] 31.6 µM | [13] 30.8 µM | [16] 18.4 µM | [14] 20.7 µM | [15] 25.2 µM

CCCCCCCC(=O)NS(=O)(=O)c1ccccc1
inactive: [1] > 100 µM | [3] > 100 µM | [4] > 100 µM | [5] > 100 µM | [8] > 100 µM | [10] > 100 µM | [11] > 100 µM | [12] > 100 µM | [13] > 100 µM | [16] > 100 µM | [15] > 100 µM
